For assay [1], the system named is HCV genotype 1a (H77 strain) replicon in HUH-7 cells. In words: HCV replicon luciferase reporter assay, genotype 1a. The note with it: Hepatitis C virus, 72 h, genotype 1a replicon, 3 days incubation, read-out: LE_1a (EC50, range). In kind it is cell-based. From the text:
(§1) An HCV replicon whole cell system was established as described by Lohmann V, Korner F, Koch J, Herian U, Theilmann L, Bartenschlager R., Science 285(5424):110-3 (1999) and modified to introduce a luciferase reporter, as first described by Krieger et al (Krieger N, Lohmann V, and Bartenschlager R, J. Virol. 75(10):4614-4624 (2001)). CDNA encoding a humanized form of the Renilla luciferase gene and a linker sequence fused directly to the 3′-end of the luciferase gene were introduced into the replicon construct using an Asc1 restriction site located in core, directly upstream of the neomycin marker gene. The adaptive mutation at position 1179 (serine to isoleucine) was also introduced (Blight K J, Kolykhalov, A A, Rice, C M, Science 290(5498):1972-1974). A stable cell line constitutively expressing this HCV replicon construct was generated by first linearizing plasmid DNAs with ScaI. RNA transcripts were synthesized in vitro using the T7 MegaScript transcription kit (Ambion, Austin, Tex.) according to manufacturer's directions. In vitro transcripts of the cDNA were transfected into the human hepatoma cell line, HUH-7. […] Resulting cell lines were characterized for positive and negative strand RNA production and protein production over time.
A stable HCV replicon luciferase reporter cell line representing the genotype 1a H77 strain (Yanagi M, Purcell R H, Emerson S U, et al. Transcripts from a single full-length cDNA clone of hepatitis C virus are infectious when directly transfected into the liver of a chimpanzee. Proc Natl Acad Sci USA 1997; 94(16):8738-8743) was generated as described previously for the genotype 1b (Con1) replicon luciferase cell line. The replicon construct was modified by introducing mutations were introduced into the genes encoding the NS3 helicase domain (proline replaced by leucine at position 1496) and NS5A (serine to isoleucine at position 2204) to improve replication in cell culture.
(§2) HCV replicon luciferase assays were developed to monitor the inhibitory effects of compounds described in the disclosure on HCV genotypes 1a and 1b viral replication. HUH-7 cells, constitutively expressing the HCV replicon, were grown in Dulbecco's Modified Eagle Media (DMEM) (Gibco-BRL) containing 10% Fetal calf serum (FCS) (Sigma) and 1 mg/mL G418 (Gibco-BRL). Compounds were serially diluted 3 folds in DMSO for a twenty-point titration and subsequently transferred to sterile 384-well tissue-culture treated plates (Corning cat #3571). The plates were then seeded with 50 μL of cells at a density of 3.0×10^3 cells/well in DMEM containing 4% FCS (final DMSO concentration at 0.5%). After 3 days incubation at 37° C., cells were analyzed for Renilla Luciferase activity using the EnduRen as substrate (Promega cat #E6485). The EnduRen substrate was diluted in DMEM and then added to the plates to a final concentration of 7.5 μM. The plates were incubated for 2 hrs at 37° C. and then read immediately for 30 seconds with Viewlux Imager (PerkinElmer) using a luminescence program. To assess cytotoxicity of compounds, CC50 values were generated by multiplexing the EnduRen-containing plates with Cell Titer-Blue (Promega, cat # G8082). Cell-Titer Blue (3 μL) was added to each well and incubated for 8 hrs at 37° C. The fluorescence signal from each well was read, with an excitation wavelength at 525/10 nm and an emission wavelength of 598/10 nm, using the Viewlux Imager.
(§3) The EC50 values for compounds were calculated by using a four-parameter logistic equation: y=A+((B−A)/(1+((C/x)^D))), where A and B denotes minimal and maximal % inhibition, respectively, C is the EC50, D is the hill slope and x represents compound concentration.
Background: A replicon is a self-replicating genome or part of one, used to study replication in cells.

The test system of assay [2] is HCV genotype 1b (Con1) replicon in HUH-7 cells. In words: HCV replicon luciferase reporter assay, genotype 1b. In kind it is cell-based. The note with it: Hepatitis C virus, 72 h, genotype 1b replicon, 3 days incubation, read-out: LE_1b (EC50, range).
Excerpt: as §1, with “time. […]” for “time.”
as §2, §3

`COC[C@@H]1C[C@H](C)CC/C=C\[C@@H]2C[C@@]2(C(=O)NS(=O)(=O)C2(C)CC2)NC(=O)[C@@H]2C[C@@H](Oc3ncc(OC)c4ccccc34)CN2C(=O)[C@H]1NC(=O)OC(C)(C)C` [Compound 1010, tert-butyl ((2R,6S,7R,9R,13aS,14aR,16aS,Z)-2-((4-methoxyisoquinolin-1-yl)oxy)-7-(methoxymethyl)-9-methyl-14a-(((1-methylcyclopropyl)sulfonyl)carbamoyl)-5,16-dioxo-1,2,3,5,6,7,8,9,10,11,13a,14,14a,15,16,16a-hexadecahydrocyclopropa[e]pyrrolo[1,2-a][1,4]diazacyclopentadecin-6-yl)carbamate]: the half-maximal effective concentration (EC50) (usually the concentration needed to bring the measured effect to its halfway point) was 0.51 to 1 nM in assay [1] and 0.1 to 0.5 nM in assay [2].

For the molecule `COC[C@@H]1C[C@H](C)CC/C=C\[C@@H]2C[C@@]2(C(=O)NS(=O)(=O)C2(C)CC2)NC(=O)[C@@H]2C[C@@H](Oc3nc4cc(OC)ccc4nc3C(C)C)CN2C(=O)[C@H]1NC(=O)OC(C)(C)C(F)(F)F` [Compound 1034, 1,1,1-trifluoro-2-methylpropan-2-yl ((2R,6S,7R,9R,13aS,14aR,16aS,Z)-2-((3-isopropyl-7-methoxyquinoxalin-2-yl)oxy)-7-(methoxymethyl)-9-methyl-14a-(((1-methylcyclopropyl)sulfonyl)carbamoyl)-5,16-dioxo-1,2,3,5,6,7,8,9,10,11,13a,14,14a,15,16,16a-hexadecahydrocyclopropa[e]pyrrolo[1,2-a][1,4]diazacyclopentadecin-6-yl)carbamate], the concentration giving a half-maximal response (EC50) in assay [1] lay in the range of 1.01 to 5 nM; in assay [2], 0.51 to 1 nM.

In the case of `COC[C@@H]1CCCC/C=C\[C@@H]2C[C@@]2(C(=O)NS(=O)(=O)C2(C)CC2)NC(=O)[C@@H]2C[C@@H](Oc3ncc(OC)c4ccccc34)CN2C(=O)[C@H]1NC(=O)OC(C)(C)C` [Compound 1007, tert-butyl ((2R,6S,7R,13aS,14aR,16aS,Z)-2-((4-methoxyisoquinolin-1-yl)oxy)-7-(methoxymethyl)-14a-(((1-methylcyclopropyl)sulfonyl)carbamoyl)-5,16-dioxo-1,2,3,5,6,7,8,9,10,11,13a,14,14a,15,16,16a-hexadecahydrocyclopropa[e]pyrrolo[1,2-a][1,4]diazacyclopentadecin-6-yl)carbamate], the 50% effective concentration (EC50) lay within 1.01 to 5 nM in assay [1] and 0.51 to 1 nM in assay [2].

On to `COC[C@@H]1C[C@@H](C)CC/C=C\[C@@H]2C[C@@]2(C(=O)NS(=O)(=O)C2(C)CC2)NC(=O)[C@@H]2C[C@@H](Oc3nc4cc(OC)ccc4nc3C(F)(F)F)CN2C(=O)[C@H]1NC(=O)OC(C)(C)C` [Compound 1027, tert-butyl ((2R,6S,7R,9S,13aS,14aR,16aS,Z)-2-((7-methoxy-3-(trifluoromethyl)quinoxalin-2-yl)oxy)-7-(methoxymethyl)-9-methyl-14a-(((1-methylcyclopropyl)sulfonyl)carbamoyl)-5,16-dioxo-1,2,3,5,6,7,8,9,10,11,13a,14,14a,15,16,16a-hexadecahydrocyclopropa[e]pyrrolo[1,2-a][1,4]diazacyclopentadecin-6-yl)carbamate], for which the EC50 in assay [1] lay within 5.01 to 35 nM; in assay [2], 1.01 to 5 nM.

Turning to `COC[C@@H]1C[C@H](C)CC/C=C\[C@@H]2C[C@@]2(C(=O)NS(=O)(=O)C2(C)CC2)NC(=O)[C@@H]2C[C@@H](Oc3nc4cc(OC)c(F)cc4nc3C(F)(F)F)CN2C(=O)[C@H]1NC(=O)OC(C)(C)C` [Compound 1047, tert-butyl ((2R,6S,7R,9R,13aS,14aR,16aS,Z)-2-((6-fluoro-7-methoxy-3-(trifluoromethyl)quinoxalin-2-yl)oxy)-7-(methoxymethyl)-9-methyl-14a-(((1-methylcyclopropyl)sulfonyl)carbamoyl)-5,16-dioxo-1,2,3,5,6,7,8,9,10,11,13a,14,14a,15,16,16a-hexadecahydrocyclopropa[e]pyrrolo[1,2-a][1,4]diazacyclopentadecin-6-yl)carbamate], in assay [2], the half-maximal effective concentration (EC50) fell in the range of 0.51 to 1 nM.

With `COC[C@@H]1C[C@@H](C)CC/C=C\[C@@H]2C[C@@]2(C(=O)NS(=O)(=O)C2(C)CC2)NC(=O)[C@@H]2C[C@@H](Oc3nc4cc(OC(C)C)ccc4nc3C(F)(F)F)CN2C(=O)[C@H]1NC(=O)OC(C)(C)C(C)(F)F` [Compound 1055, 3,3-difluoro-2-methylbutan-2-yl ((2R,6S,7R,9S,13aS,14aR,16aS,Z)-2-((7-isopropoxy-3-(trifluoromethyl)quinoxalin-2-yl)oxy)-7-(methoxymethyl)-9-methyl-14a-(((1-methylcyclopropyl)sulfonyl)carbamoyl)-5,16-dioxo-1,2,3,5,6,7,8,9,10,11,13a,14,14a,15,16,16a-hexadecahydrocyclopropa[e]pyrrolo[1,2-a][1,4]diazacyclopentadecin-6-yl)carbamate], the half-maximal effective concentration (EC50) in assay [2] lay in the range of 1.01 to 5 nM.

In the case of `COC[C@@H]1C[C@@H](C)CC/C=C\[C@@H]2C[C@@]2(C(=O)NS(=O)(=O)C2(C)CC2)NC(=O)[C@@H]2C[C@@H](Oc3nc4cc(OC)c(F)cc4nc3C(F)(F)F)CN2C(=O)[C@H]1NC(=O)OC(C)(C)C(F)(F)F` [Compound 1046, 1,1,1-trifluoro-2-methylpropan-2-yl ((2R,6S,7R,9S,13aS,14aR,16aS,Z)-2-((6-fluoro-7-methoxy-3-(trifluoromethyl)quinoxalin-2-yl)oxy)-7-(methoxymethyl)-9-methyl-14a-(((1-methylcyclopropyl)sulfonyl)carbamoyl)-5,16-dioxo-1,2,3,5,6,7,8,9,10,11,13a,14,14a,15,16,16a-hexadecahydrocyclopropa[e]pyrrolo[1,2-a][1,4]diazacyclopentadecin-6-yl)carbamate], in assay [2], the EC50 lay in the range of 1.01 to 5 nM.

Turning to `CCOc1ccc2nc(C(F)(F)F)c(O[C@@H]3C[C@H]4C(=O)N[C@]5(C(=O)NS(=O)(=O)C6(C)CC6)C[C@H]5/C=C\CC[C@@H](C)C[C@@H](COC)[C@H](NC(=O)OC(C)(C)C(F)(F)F)C(=O)N4C3)nc2c1` [Compound 1054, 1,1,1-trifluoro-2-methylpropan-2-yl ((2R,6S,7R,9R,13aS,14aR,16aS,Z)-2-((7-ethoxy-3-(trifluoromethyl)quinoxalin-2-yl)oxy)-7-(methoxymethyl)-9-methyl-14a-(((1-methylcyclopropyl)sulfonyl)carbamoyl)-5,16-dioxo-1,2,3,5,6,7,8,9,10,11,13a,14,14a,15,16,16a-hexadecahydrocyclopropa[e]pyrrolo[1,2-a][1,4]diazacyclopentadecin-6-yl)carbamate], the half-maximal effective concentration (EC50) in assay [2] is 0.1 to 0.5 nM.

Values taken from patent publication US9580463B2 (BRISTOL-MYERS SQUIBB COMPANY, priority 2013, dated 2017).
